Tests used:
[1] = tested on: SW620 cells; experiment: FACS-based phagocytosis assay, mouse BMDMs with SW620 target cells; assay type: cell-based, human; settings: for phagocytosis of tumor cells after treatment of macrophages with TLR agonist: SW620 (PBS-treated, Hu5F9-G4-treated or CD47KO), γc-/- or NSG mice, FIG. 6A-6B
Method: We performed phagocytosis assays by co-culturing mouse bone marrow-derived macrophages (BMDMs) and target human cancer cells to examine the efficacy of PrCR under different conditions. To induce phagocytosis, we blocked CD47 on a human colon cancer cell line (SW620) by either treating tumor cells with CD47 blocking antibodies or directly knocking it out.
(§1) Phagocytosis assay. FACS-based phagocytosis assays were performed to evaluate phagocytic abilities of macrophages. Macrophages were harvested after 6-8 days of differentiation and divided into FACS tubes or low-attachment 96-well plates, with 1-5×10^4 cells per well/tube. Target cells were added and mixed with macrophages, and incubated at 37° C. for 2 hrs with indicated conditions (antibody/drug treatment). For CD47 blockade, anti-CD47 (B6H12, BD Biosciences) or humanized anti-CD47 (Hu5F9-G4; provided by the CD47 disease team at Stanford University) antibodies were used. Cells were then incubated with PE cy7-conjugated anti-mouse F4/80 antibody to stain macrophages. After incubation, cells were washed with FACS buffer and resuspended with FACS buffer containing sytox blue to distinguish dead cells. Phagocytic index was examined by FACS analyses, and macrophages that phagocytosed target cells were F4/80+ and GFP+. Phagocytic index was calculated with the number of F4/80+GFP+ cells/divided by the number of F4/80+ cells. In each experiment, phagocytic indexes were normalized to the maximal indexes.
Alternatively, macrophages and target cells were mixed and cocultured in 24 well plates for 16-24 hrs with indicated conditions. Cells were collected from the plates by TrypLE and incubated with PE cy7-conjugated anti-mouse F4/80 antibody to stain for macrophages. After incubation, cells were washed with FACS buffer and resuspended with FACS buffer containing sytox blue and non-colored standard cells (293T cells were used as standard cells). Cells were then subjected to FACS analyses. Remaining target cells were normalized to standard cells (numbers of standard cells were known and equal in each sample) to evaluate the percentage of cells phagocytosed by macrophages during the incubation.

[2] = tested on: calreticulin (CRT); experiment: Cell surface exposure of CRT on macrophages (cell surface biotinylation, flow cytometry); assay type: cell-based, mouse; settings: for cell surface CRT on macrophages, cell surface biotinylation assay: immunoblots, FIG. 3A; for cell surface exposure of CRT on macrophages, flow cytometry: TLR agonist treatment, FIG. 3B, 10B
Method: Flow cytometry Analysis. Flow cytometry analyses were performed using a BD LSRFortessa. For staining, 2.5×10^5-10^6 cells were incubated with indicated antibodies (1:50-1:200) in FACS buffer (PBS with 2% fetal bovine serum) on ice for 30 minutes. Cells were then washed with FACS buffer and subjected to FACS analyses. For staining of macrophages, cells were first treated with Fc receptor blockers or a high concentration of isotype IgG control (5-10 times of indicated antibodies) to block non-specific binding of antibodies caused by the interaction of Fc domain and Fc receptors on macrophages.
Cell surface biotinylation. […] Cells were incubated with NHS-SS-Biotin (0.5 mg/ml) for 1 hr in PBS (pH8.0), and then rinsed with quench buffer (20 mM Tris-HCl, 120 mM NaCl, pH7.4), 100 mM Glycine in PBS, and PBS. Cells were lysed in lysis buffer (20 mM Tris-HCl, pH7.4, 150 mM NaCl, 2 mM EDTA, supplemented with 1% Triton X-100, protease inhibitor cocktail and phosphatase inhibitor cocktail). Cell lysate was incubated with neutravidin agarose resin for 4 hr at 4° C., and the resin was washed using lysis buffer. Biotin-labeled proteins were eluted with lysis buffer containing 2% SDS and 100 mM DTT, and subjected to SDS-PAGE and immunoblotting. Intracellular protein GAPDH was used as a negative control to confirm that only cell surface proteins were labeled by NHS-SS-Biotin.

[3] = tested on: SW620 cells; experiment: Phagocytosis assay, human PBMC-derived macrophages with SW620 target cells; assay type: cell-based; settings: SW620 Control IgG- or B6H12-treated; FIG. 10D
Method: The cells were examined by flow cytometry analyses. Remaining target cells were used to evaluate efficacy of phagocytosis, with less remaining target cells representing stronger phagocytosis. […] Error bars represent standard deviation (FIGS. 10A, 10C and 10D).
Human peripheral blood-derived macrophages were generated as previously described.
Phagocytosis assay. FACS-based phagocytosis assays were performed to evaluate phagocytic abilities of macrophages. […] Target cells were added and mixed with macrophages, and incubated at 37° C. for 2 hrs with indicated conditions (antibody/drug treatment). For CD47 blockade, anti-CD47 (B6H12, BD Biosciences) or humanized anti-CD47 (Hu5F9-G4; provided by the CD47 disease team at Stanford University) antibodies were used. Cells were then incubated with PE cy7-conjugated anti-mouse F4/80 antibody to stain macrophages. After incubation, cells were washed with FACS buffer and resuspended with FACS buffer containing sytox blue to distinguish dead cells. Phagocytic index was examined by FACS analyses, and macrophages that phagocytosed target cells were F4/80+ and GFP+. Phagocytic index was calculated with the number of F4/80+GFP+ cells/divided by the number of F4/80+ cells. In each experiment, phagocytic indexes were normalized to the maximal indexes.

[4] = tested on: calreticulin (CRT); experiment: CRT phosphorylation in J774 cells expressing myc-CRT (immunoprecipitation, immunoblot); assay type: cell-based, mouse; settings: myc-tagged CRT, FIG. 10E
Method: Immunoprecipitation. Calreticulin was immunoprecipitated from J774 cells expressing myc-CRT. J774 cells were plated 12 hrs before immunoprecipitation. Cells were treated with imiquimod (1 ug/ml) at indicated time points, and washed with pre-chilled PBS containing phosphatase inhibitors on ice. Cells were then lysed in lysis buffer (20 mM Tris-HCl, pH7.4, 150 mM NaCl, 2 mM EDTA, supplemented with 1% Triton X-100, protease inhibitor cocktail and phosphatase inhibitor cocktail). Cell lysate was incubated for 1 hr with GammaBind Plus Sepharose for preclearance and 4 hr with anti-myc antibodies at 4° C. GammaBind sepharose was added to cell lysate and incubated for 1 hr at 4° C. Beads were washed with lysis buffer. Proteins were eluted with lysis buffer containing 2% SDS and 100 mM DTT, and subjected to SDS-PAGE and immunoblotting. To detect phosphorylated CRT, the blot was incubated with biotin-labeled pT66 anti-p-Tyrosine antibody and HRP-conjugated streptavidin.

[5] = biological target: T1, Btk (Mus musculus, UniProt P35991); experiment: Immunoblot of Btk phosphorylation in macrophages; assay type: cell-based; settings: treatment with TLR agonist, FIG. 2B
T1 construct: endogenous in cells; probably mouse bone-marrow-derived macrophages
From the text: FIG. 2A-2D. […] Error bars represent standard deviation (FIGS. 2A, 2C and 2D).

[6] = tested on: HL60, Raji, PC3, MDA-MB-231 cells; experiment: Phagocytosis assay, mouse BMDMs with multiple hematopoietic and solid tumor cells; assay type: cell-based, human; settings: macrophages treated with TLR3, 4 and 7 agonists; FIGS. 6A-C and 7A-D
From the text: FIG. 7A-7D. Phagocytosis of HL60, Raji, PC-3, MDA-MB-231 is enhanced by TLR agonists. Phagocytosis assays showing TLR agonists enhanced phagocytosis of multiple human cancer cells, with different hematopoietic (HL60 and Raji) and solid tumor (PC3 and MDA-MB-231) cells (PBS- or Hu5F9-G4-treated) as target cells and BMDMs from NSG (HL60, Raji and PC3) or RAG2^−/−, γc^−/− (MDA-MB-231) mice. HL60: Promyelocytic leukemia; Raji: Burkitt's lymphoma; PC3: Prostate cancer; MDA-MB-231: Breast cancer. Error bars represent standard deviation (FIG. 7A-7D).
as §1

[7] = tested on: PC3 prostate cancer cells; experiment: Flow cytometry of dissociated PC3 tumor specimens from treated NSG mice; assay type: in vivo, mouse; settings: PC3 tumors in NSG mice; FIG. 8B
Method: Tumor engraftment and treatment. PC3 cells (human prostate cancer) were suspended in F-12K medium with 25% matrix matrigel, and injected subcutaneously on the back of 6-10 week NSG mice. Mice were treated with PBS or Hu5F9-G4 antibody by intraperitoneal injection 2 weeks after engraftment, and PBS or TLR agonists (20 μg of Poly (I:C) HMW and 20 μg of LPS) by intratumoral injection 7 weeks after engraftment when tumors reached 100 mm^3.
Tumor dissociation and FACS analyses. Tumor specimens were collected from the mice, minced to pieces smaller than 1 mm in diameter and dissociated in medium 199 with TM enzymes and DNAase at 37° C. until single-cell suspension was achieved. The cells were treated with ACK lysing buffer for lysis of red blood cells, washed twice with HBSS, filtered through 70 μm cell strainer and subjected to flow cytometry analyses. The cells were stained with anti-CD31 antibody, anti-Gr-1 antibody and sytox blue to exclude endothelial cells, neutrophils and dead cells, and with anti-F4/80 antibody for macrophages.

T1 sequence (P35991 whole entry): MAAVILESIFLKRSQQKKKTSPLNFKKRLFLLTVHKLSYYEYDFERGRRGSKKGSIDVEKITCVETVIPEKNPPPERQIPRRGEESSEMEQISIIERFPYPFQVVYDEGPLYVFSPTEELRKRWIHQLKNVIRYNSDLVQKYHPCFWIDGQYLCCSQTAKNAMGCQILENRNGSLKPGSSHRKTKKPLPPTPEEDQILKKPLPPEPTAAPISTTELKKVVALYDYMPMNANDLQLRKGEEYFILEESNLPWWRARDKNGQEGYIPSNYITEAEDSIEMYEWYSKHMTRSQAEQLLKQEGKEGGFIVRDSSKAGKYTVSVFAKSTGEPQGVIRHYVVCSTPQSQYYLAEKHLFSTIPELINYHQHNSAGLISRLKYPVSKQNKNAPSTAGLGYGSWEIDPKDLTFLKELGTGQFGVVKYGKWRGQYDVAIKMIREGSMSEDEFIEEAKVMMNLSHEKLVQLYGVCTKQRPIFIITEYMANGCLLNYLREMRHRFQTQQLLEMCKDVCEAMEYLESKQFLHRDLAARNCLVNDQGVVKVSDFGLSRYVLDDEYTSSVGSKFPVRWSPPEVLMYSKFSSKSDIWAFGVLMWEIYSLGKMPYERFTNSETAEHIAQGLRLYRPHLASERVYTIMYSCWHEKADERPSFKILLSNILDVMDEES

Btk phosphorylation in macrophages [5]	Molecule	cell surface CRT on macrophages, cell surface biotinylation assay [2]	phagocytosis of multiple hematopoietic and solid tumor cells [6]	phagocytosis of tumor cells after treatment of macrophages with TLR agonist ([1]; BMDMs from RAG2-/-)	cell surface exposure of CRT on macrophages, flow cytometry [2]	further results
–	C=CC(=O)N1CCC[C@@H](n2nc(-c3ccc(Oc4ccccc4)cc3)c3c(N)ncnc32)C1 [ibrutinib, 1-[(3R)-3-[4-amino-3-(4-phenoxyphenyl)pyrazolo[3,4-d]pyrimidin-1-yl]piperidin-1-yl]prop-2-en-1-one]	decreased	–	–	–	basal level phagocytosis of cancer cells (resting macrophages) ([1]; Fc-dependent and -independent, 16 hr coculture, BMDMs from RAG2-/-, γc-/- mice, FIG. 10A): inhibitory effect; phagocytosis induced by TLR agonists, combined with inhibitor ([1]; SW620 (control or CD47KO), BMDMs from RAG2-/-, γc-/- mice, FIG. 2A): significantly attenuated; time to maximal inhibition of phagocytosis on blockade of Btk ([1]; SW620 CD47KO target cells, BMDMs from NSG mice, FIG. 2D): ≤ 1 h; imiquimod-induced cell surface expression of CRT on macrophages with ibrutinib ([2]; imiquimod+ibrutinib, flow cytometry, FIG. 10B): reversed; phagocytosis of SW620 cells by human PBMC-derived macrophages [3]: inhibited phagocytosis
stimulated Btk to be phosphorylated	CC(C)Cn1cnc2c(N)nc3ccccc3c21 [imiquimod, Imiquimod]	increased	dramatically enhanced	promoted phagocytosis	Increased cell surface exposure	time of treatment to maximal level of CRT phosphorylation [4]: 30 min; duration of Btk-activation for maximal phagocytic ability of macrophages ([1]; SW620 CD47KO target cells, BMDMs from NSG mice, FIG. 2C): 16 h; cell surface exposure of CRT on macrophages, flow cytometry ([2]; listed as Imiquimod): increased cell surface expression
stimulated Btk to be phosphorylated	polyinosinic-polycytidylic acid-high molecular weight [Poly (I:C) HMW]	–	dramatically enhanced	promoted phagocytosis	Increased cell surface exposure	–
–	Hu5F9-G4: humanized anti-CD47 antibody provided by the CD47 disease team at Stanford University (antibody, chains of the INN, looked up, V domains shown) VH: QVQLVQSGAEVKKPGASVKVSCKASGYTFTNYNMHWVRQAPGQRLEWMGTIYPGNDDTSYNQKFKDRVTITADTSASTAYMELSSLRSEDTAVYYCARGGYRAMDYWGQGTLVTVSS VL: DIVMTQSPLSLPVTPGEPASISCRSSQSIVYSNGNTYLGWYLQKPGQSPQLLIYKVSNRFSGVPDRFSGSGSGTDFTLKISRVEAEDVGVYYCFQGSHVPYTFGQGTKLEIK	–	–	–	–	macrophages (a1+a2) in tumor specimens [7]: 46.26%; macrophages that had phagocytosed tumor cells a2 (GFP+F4/80+), ongoing phagocytosis [7]: 39.3%; tumor cells a4 (GFP+F4/80-) in tumor specimens [7]: 40%
–	B6H12: anti-CD47 antibody (B6H12, BD Biosciences) (antibody, V domains shown) VH: EVQLVESGGDLVKPGGSLKLSCAASGFTFSGYGMSWVRQTPDKRLEWVATITSGGTYTYYPDSVKGRFTISRDNAKNTLYLQIDSLKSEDTAIYFCARSLAGNAMDYWGQGTSVTVSS VL: DIVMTQSPATLSVTPGDRVSLSCRASQTISDYLHWYQQKSHESPRLLIKFASQSISGIPSRFSGSGSGSDFTLSINSVEPEDVGVYYCQNGHGFPRTFGGGTKLEIK	–	–	–	–	phagocytosis of SW620 cells on blockade of CD47 ([1]; BMDMs from RAG2-/-, γc-/- mice, FIG. 1A): induced phagocytosis

Molecule	Btk phosphorylation in macrophages [5]	cell surface CRT on macrophages, cell surface biotinylation assay [2]	phagocytosis of multiple hematopoietic and solid tumor cells [6]	phagocytosis of tumor cells after treatment of macrophages with TLR agonist ([1]; BMDMs from RAG2-/-)	cell surface exposure of CRT on macrophages, flow cytometry [2]	further results
lipopolysaccharide [LPS]	stimulated Btk to be phosphorylated	–	dramatically enhanced	promoted phagocytosis	Increased cell surface exposure	phagocytic ability of macrophages ([1]; SW620 (PBS- or Hu5F9-G4-treated), BMDMs from NSG mice, flow cytometry plots, FIG. 6C): strongly enhanced

— patent US12318448B2, “Use of TLR agonist and anti-CD47 agent to enhance phagocytosis of cancer cells” (The Board of Trustees of the Leland Stanford Junior …, priority 2015, dated 2025)
